Assay: Body weight, 4-week subacute toxicity study
Type: in vivo, Sprague Dawley (SD) rats
Description: Body weight was recorded twice a week during the dosing phase and then once a week during the recovery phase. Terminal body weight was recorded before each necropsy for calculating the organ weight ratios.

[1] = female rats, 0.6 mg/kg/day, Day 6
[2] = female rats, 0.6 mg/kg/day, Day 9
[3] = female rats, 0.6 mg/kg/day, Day 13
[4] = female rats, 0.6 mg/kg/day, Day 16
[5] = female rats, 0.6 mg/kg/day, Day 20
[6] = female rats, 0.6 mg/kg/day, Day 23
[7] = female rats, 0.6 mg/kg/day, Day 27
[8] = female rats, 0.6 mg/kg/day, Prior to 1st dosing
[9] = female rats, 0.6 mg/kg/day, Recovery day 5
[10] = female rats, 0.6 mg/kg/day, Recovery day 12
[11] = female rats, 0.6 mg/kg/day, Recovery day 19
[12] = female rats, 0.6 mg/kg/day, Recovery day 26
[13] = female rats, 1.2 mg/kg/day, Day 6
[14] = female rats, 1.2 mg/kg/day, Day 9
[15] = female rats, 1.2 mg/kg/day, Day 13
[16] = female rats, 1.2 mg/kg/day, Day 16
[17] = female rats, 1.2 mg/kg/day, Day 20
[18] = female rats, 1.2 mg/kg/day, Day 23
[19] = female rats, 1.2 mg/kg/day, Day 27
[20] = female rats, 1.2 mg/kg/day, Prior to 1st dosing
[21] = female rats, 1.2 mg/kg/day, Recovery day 5
[22] = female rats, 1.2 mg/kg/day, Recovery day 12
[23] = female rats, 1.2 mg/kg/day, Recovery day 19
[24] = female rats, 1.2 mg/kg/day, Recovery day 26
[25] = female rats, 2.4 mg/kg/day, Day 6
[26] = female rats, 2.4 mg/kg/day, Day 9
[27] = female rats, 2.4 mg/kg/day, Day 13
[28] = female rats, 2.4 mg/kg/day, Day 16
[29] = female rats, 2.4 mg/kg/day, Day 20
[30] = female rats, 2.4 mg/kg/day, Day 23
[31] = female rats, 2.4 mg/kg/day, Day 27
[32] = female rats, 2.4 mg/kg/day, Prior to 1st dosing
[33] = female rats, 2.4 mg/kg/day, Recovery day 5
[34] = female rats, 2.4 mg/kg/day, Recovery day 12
[35] = female rats, 2.4 mg/kg/day, Recovery day 19
[36] = female rats, 2.4 mg/kg/day, Recovery day 26
[37] = male rats, 0.6 mg/kg/day, Day 6
[38] = male rats, 0.6 mg/kg/day, Day 9
[39] = male rats, 0.6 mg/kg/day, Day 13
[40] = male rats, 0.6 mg/kg/day, Day 16
[41] = male rats, 0.6 mg/kg/day, Day 20
[42] = male rats, 0.6 mg/kg/day, Day 23
[43] = male rats, 0.6 mg/kg/day, Day 27
[44] = male rats, 0.6 mg/kg/day, Prior to 1st dosing
[45] = male rats, 0.6 mg/kg/day, Recovery day 5
[46] = male rats, 0.6 mg/kg/day, Recovery day 12
[47] = male rats, 0.6 mg/kg/day, Recovery day 19
[48] = male rats, 0.6 mg/kg/day, Recovery day 26
[49] = male rats, 1.2 mg/kg/day, Day 6
[50] = male rats, 1.2 mg/kg/day, Day 9
[51] = male rats, 1.2 mg/kg/day, Day 13
[52] = male rats, 1.2 mg/kg/day, Day 16
[53] = male rats, 1.2 mg/kg/day, Day 20
[54] = male rats, 1.2 mg/kg/day, Day 23
[55] = male rats, 1.2 mg/kg/day, Day 27
[56] = male rats, 1.2 mg/kg/day, Prior to 1st dosing
[57] = male rats, 1.2 mg/kg/day, Recovery day 5
[58] = male rats, 1.2 mg/kg/day, Recovery day 12
[59] = male rats, 1.2 mg/kg/day, Recovery day 19
[60] = male rats, 1.2 mg/kg/day, Recovery day 26
[61] = male rats, 2.4 mg/kg/day, Day 6
[62] = male rats, 2.4 mg/kg/day, Day 9
[63] = male rats, 2.4 mg/kg/day, Day 13
[64] = male rats, 2.4 mg/kg/day, Day 16
[65] = male rats, 2.4 mg/kg/day, Day 20
[66] = male rats, 2.4 mg/kg/day, Day 23
[67] = male rats, 2.4 mg/kg/day, Day 27
[68] = male rats, 2.4 mg/kg/day, Prior to 1st dosing
[69] = male rats, 2.4 mg/kg/day, Recovery day 5
[70] = male rats, 2.4 mg/kg/day, Recovery day 12
[71] = male rats, 2.4 mg/kg/day, Recovery day 19
[72] = male rats, 2.4 mg/kg/day, Recovery day 26

Fc1ccc([C@]2(CCNCc3cccc(Cl)c3)CCO[C@]3(CCOC3)C2)nc1 [LPM3480392]
Body weight [1]: 194.0 ± 11.4 g | Body weight change rate [1]: 4.64% | Body weight [2]: 201.1 ± 13.7 g | Body weight change rate [2]: 5.62% | Body weight [3]: 209.5 ± 13.4 g | Body weight change rate [3]: 7.05% | Body weight [4]: 214.4 ± 13.2 g | Body weight change rate [4]: 6.19% | Body weight [5]: 224.2 ± 15.1 g | Body weight change rate [5]: 6.91% | Body weight [6]: 228.1 ± 15.3 g | Body weight change rate [6]: 5.65% | Body weight [7]: 236.2 ± 15.3 g | Body weight change rate [7]: 8.05% | Body weight [8]: 176.9 ± 7.3 g | Body weight change rate [8]: −0.67% | Body weight [9]: 243.5 ± 9.3 g | Body weight change rate [9]: 5.96% | Body weight [10]: 251.6 ± 10.2 g | Body weight change rate [10]: 6.38% | Body weight [11]: 258.8 ± 12.5 g | Body weight change rate [11]: 2.70% | Body weight [12]: 265.5 ± 15.7 g | Body weight change rate [12]: 3.11% | Body weight [13]: 194.9 ± 10.5 g | Body weight change rate [13]: 5.12% | Body weight [14]: 200.1 ± 12.1 g | Body weight change rate [14]: 5.09% | Body weight [15]: 215.3 ± 11.3 g | Body weight change rate [15]: 10.02% | Body weight [16]: 218.9 ± 12.3 g | Body weight change rate [16]: 8.42% | Body weight [17]: 221.5 ± 14.8 g | Body weight change rate [17]: 5.63% | Body weight [18]: 232.4 ± 16.4 g | Body weight change rate [18]: 7.64% | Body weight [19]: 237.2 ± 15.4 g | Body weight change rate [19]: 8.51% | Body weight [20]: 175.3 ± 7.7 g | Body weight change rate [20]: −1.57% | Body weight [21]: 237.7 ± 13.0 g | Body weight change rate [21]: 3.44% | Body weight [22]: 244.8 ± 13.2 g | Body weight change rate [22]: 3.51% | Body weight [23]: 259.9 ± 16.5 g | Body weight change rate [23]: 3.13% | Body weight [24]: 261.8 ± 22.7 g | Body weight change rate [24]: 1.67% | Body weight [25]: 194.7 ± 11.9 g | Body weight change rate [25]: 5.02% | Body weight [26]: 198.8 ± 14.7 g | Body weight change rate [26]: 4.41% | Body weight [27]: 211.2 ± 13.0 g | Body weight change rate [27]: 7.92% | Body weight [28]: 209.1 ± 13.2 g | Body weight change rate [28]: 3.57% | Body weight [29]: 220.8 ± 15.5 g | Body weight change rate [29]: 5.29% | Body weight [30]: 221.7 ± 19.8 g | Body weight change rate [30]: 2.69% | Body weight [31]: 230.9 ± 19.3 g | Body weight change rate [31]: 5.63% | Body weight [32]: 179.1 ± 8.3 g | Body weight change rate [32]: 0.56% | Body weight [33]: 230.1 ± 19.1 g | Body weight change rate [33]: 0.13% | Body weight [34]: 241.1 ± 21.0 g | Body weight change rate [34]: 1.95% | Body weight [35]: 253.1 ± 25.8 g | Body weight change rate [35]: 0.44% | Body weight [36]: 261.1 ± 25.5 g | Body weight change rate [36]: 1.40% | Body weight [37]: 247.1 ± 9.6 g | Body weight change rate [37]: 1.31% | Body weight [38]: 268.8 ± 11.6 g | Body weight change rate [38]: 2.32% | Body weight [39]: 292.6 ± 13.5 g | Body weight change rate [39]: 0.62% | Body weight [40]: 300.8 ± 12.5 g | Body weight change rate [40]: −2.12% | Body weight [41]: 321.4 ± 15.8 g | Body weight change rate [41]: −0.22% | Body weight [42]: 332.6 ± 17.3 g | Body weight change rate [42]: −0.33% | Body weight [43]: 349.9 ± 20.1 g | Body weight change rate [43]: −0.20% | Body weight [44]: 213.2 ± 11.1 g | Body weight change rate [44]: 0.66% | Body weight [45]: 367.7 ± 23.5 g | Body weight change rate [45]: −4.86% | Body weight [46]: 395.5 ± 24.5 g | Body weight change rate [46]: −4.63% | Body weight [47]: 415.6 ± 25.4 g | Body weight change rate [47]: −5.29% | Body weight [48]: 442.1 ± 24.4 g | Body weight change rate [48]: −4.22% | Body weight [49]: 243.6 ± 12.3 g | Body weight change rate [49]: −0.12% | Body weight [50]: 247.3 ± 10.6 g | Body weight change rate [50]: −5.86% | Body weight [51]: 281.5 ± 15.7 g | Body weight change rate [51]: −3.20% | Body weight [52]: 297.1 ± 19.6 g | Body weight change rate [52]: −3.32% | Body weight [53]: 313.4 ± 22.6 g | Body weight change rate [53]: −2.70% | Body weight [54]: 325.9 ± 21.5 g | Body weight change rate [54]: −2.34% | Body weight [55]: 339.3 ± 23.2 g | Body weight change rate [55]: −3.22% | Body weight [56]: 213.2 ± 9.4 g | Body weight change rate [56]: 0.66% | Body weight [57]: 361.2 ± 14.2 g | Body weight change rate [57]: −6.55% | Body weight [58]: 388.0 ± 14.5 g | Body weight change rate [58]: −6.44% | Body weight [59]: 416.4 ± 19.3 g | Body weight change rate [59]: −5.10% | Body weight [60]: 444.3 ± 23.9 g | Body weight change rate [60]: −3.75% | Body weight [61]: 234.0 ± 21.8 g | Body weight change rate [61]: −4.06% | Body weight [62]: 249.9 ± 31.9 g | Body weight change rate [62]: −4.87% | Body weight [63]: 272.4 ± 27.9 g | Body weight change rate [63]: −6.33% | Body weight [64]: 281.1 ± 31.2 g | Body weight change rate [64]: −8.53% | Body weight [65]: 297.6 ± 36.8 g | Body weight change rate [65]: −7.61% | Body weight [66]: 299.3 ± 36.1 g | Body weight change rate [66]: −10.31% | Body weight [67]: 315.4 ± 36.4 g | Body weight change rate [67]: −10.04% | Body weight [68]: 213.9 ± 12.9 g | Body weight change rate [68]: 0.99% | Body weight [69]: 329.2 ± 48.5 g | Body weight change rate [69]: −14.83% | Body weight [70]: 365.9 ± 50.0 g | Body weight change rate [70]: −11.77% | Body weight [71]: 386.7 ± 51.8 g | Body weight change rate [71]: −11.87% | Body weight [72]: 413.2 ± 56.3 g | Body weight change rate [72]: −10.49%
